Source: the NIST ThermoML archive (doi:10.1016/j.jct.2004.04.003)

Tests used:
[1] = molar heat capacity at saturation pressure
[2] = Molar enthalpy of transition or fusion; settings: Adiabatic calorimetry
[3] = for vapor or sublimation pressure: Twin ebulliometer; for Triple point temperature: Adiabatic calorimetry

C1CCC(C2CCCC2)C1 [1,1'-bicyclopentyl]
Settings | Critical temperature [K] | mass density [kg/m3] | molar heat capacity [J/K/mol] | vapor or sublimation pressure [kPa]
[1], 210.53 K, Crystal 1, Vacuum adiabatic calorimetry | – | – | 164.59 | –
[1], 215.22 K, Crystal 1, Vacuum adiabatic calorimetry | – | – | 168.8 | –
[1], 218.83 K, Crystal 1, Vacuum adiabatic calorimetry | – | – | 172.67 | –
[1], 220 K, Crystal 1, Vacuum adiabatic calorimetry | – | – | 173.41 | –
[1], 223.28 K, Crystal 1, Vacuum adiabatic calorimetry | – | – | 177.54 | –
[1], 230 K, Crystal 1, Vacuum adiabatic calorimetry | – | – | 183.54 | –
[1], 230.93 K, Crystal 1, Vacuum adiabatic calorimetry | – | – | 187.18 | –
[1], 237.82 K, Crystal 1, Vacuum adiabatic calorimetry | – | – | 192.05 | –
[1], 420 K, Liquid | – | – | 312.05 | –
[1], 440 K, Liquid | – | – | 324.49 | –
[1], 460 K, Liquid | – | – | 336.88 | –
[1], 480 K, Liquid | – | – | 349.1 | –
[1], 500 K, Liquid | – | – | 361.07 | –
[1], 520 K, Liquid | – | – | 372.68 | –
[1], 540 K, Liquid | – | – | 383.83 | –
[1], 560 K, Liquid | – | – | 394.48 | –
[1], 580 K, Liquid | – | – | 404.71 | –
[1], 600 K, Liquid | – | – | 414.76 | –
[3], 384 K, Liquid | – | – | – | 9.59
[3], 387.47 K, Liquid | – | – | – | 10.89
[3], 390.95 K, Liquid | – | – | – | 12.35
[3], 394.45 K, Liquid | – | – | – | 13.96
[3], 397.96 K, Liquid | – | – | – | 15.75
[3], 401.49 K, Liquid | – | – | – | 17.74
[3], 405.02 K, Liquid | – | – | – | 19.93
[3], 405.03 K, Liquid | – | – | – | 19.93
[3], 412.15 K, Liquid | – | – | – | 25.02
[3], 419.33 K, Liquid | – | – | – | 31.18
[3], 426.57 K, Liquid | – | – | – | 38.56
[3], 433.87 K, Liquid | – | – | – | 47.38
[3], 441.22 K, Liquid | – | – | – | 57.82
[3], 448.61 K, Liquid | – | – | – | 70.12
[3], 456.08 K, Liquid | – | – | – | 84.53
[3], 463.61 K, Liquid | – | – | – | 101.33
[3], 471.19 K, Liquid | – | – | – | 120.79
[3], 478.83 K, Liquid | – | – | – | 143.25
[3], 486.53 K, Liquid | – | – | – | 169.02
[3], 494.28 K, Liquid | – | – | – | 198.49
[3], 502.09 K, Liquid | – | – | – | 232.02
[3], 509.97 K, Liquid | – | – | – | 270.02
[3], 662.5 K, Gas | – | 114.4 | – | –
[3], 682.8 K, Gas | – | 171.2 | – | –
[3], 685.1 K, Liquid | – | 366 | – | –
[3], 687.3 K, Liquid | – | 347.2 | – | –
[3], 689.6 K, Liquid | – | 311 | – | –
[3], 689.8 K, Gas | – | 244.4 | – | –
[3], Liquid, DTA | 690 | – | – | –

[1], Liquid, Vacuum adiabatic calorimetry
Settings | molar heat capacity [J/K/mol]
235.7 K | 209.39
237.82 K | 210.18
240 K | 211.02
242.86 K | 212.18
250 K | 215.09
251.35 K | 215.65
251.38 K | 215.6
260 K | 219.43
260.38 K | 219.61
260.4 K | 219.59
269.99 K | 224.12
270 K | 224.11
279.85 K | 228.87
280 K | 228.97
289.97 K | 234.24
290 K | 234.26
298.15 K | 238.69
300 K | 239.71
300.32 K | 239.88
303.62 K | 241.76
312.36 K | 246.68
320 K | 251.11
321.76 K | 252.14
331.4 K | 257.76
340 K | 262.83
340.79 K | 263.29
350.44 K | 269.11
360 K | 274.85
360.31 K | 275.02
369.98 K | 281.03
379.48 K | 286.87
380 K | 287.22
388.81 K | 292.97
400 K | 299.69

Settings | Molar enthalpy of transition or fusion, Crystal 1 [kcal/mol] | Molar enthalpy of transition or fusion, Crystal 2 [kcal/mol] | Triple point temperature, Crystal 1 [K] | Triple point temperature, Crystal 2 [K] | Triple point temperature, Crystal 3 [K]
[2] | 3.202 | 0.06142 | – | – | –
[3] | – | – | 237.82 | 171.5 | 128.4
